According to US8404848B2, “Derivatives of imidazo[1,2-a]pyridine-2-carboxamides, preparation method thereof and use of same in therapeutics” (Sanofi, priority 2006, dated 2013):

Assays:
mouse Nurr1 receptor = molecular target: T1, mouse Nurr1 receptor (Mus musculus, UniProt Q06219); assay: In vitro activity on N2A cells (NBRE-luciferase reporter); format: cell-based; conditions: N2A cell line endogenously expressing mouse Nurr1, stably transfected with 8NBRE-luciferase; 24 hours incubation
T1 construct: On a cell line (N2A) endogenously expressing the mouse Nurr1 receptor; host or cells: Neuro-2A (N2A) mouse neuroblastoma cells stably transfected with 8NBRE-luciferase
Procedure: Evaluation of the In Vitro Activity on N2A Cells
On a cell line (N2A) endogenously expressing the mouse Nurr1 receptor and stably transfected with the NOT binding response element (NBRE) coupled to the luciferase reporter gene. The EC50 values are between 0.01 and 1000 nM. The assays were carried out according to the procedure described below.
The Neuro-2A cell line comes from a standard commercial source (ATCC). The Neuro-2A clone was obtained, from a spontaneous tumor originating from an A albino mouse strain, by R. J Klebe et al. This Neuro-2A line is subsequently stably transfected with 8NBRE-luciferase. The N2A-8NBRE cells are cultured until confluence in 75 cm^2 culture flasks containing DMEM supplemented with 10% of fetal calf serum, 4.5 g/l of glucose and 0.4 mg/ml of geneticin. After a week of culture, the cells are recovered with 0.25% trypsin for 30 seconds and then resuspended in DMEM without phenol red, containing 4.5 g/l of glucose and 10% of Hyclone delipidized serum, and deposited into transparent-bottom 96-well white plates. The cells are deposited at a rate of 60 000 per well in 75 μl for 24 hours before the addition of the products. The products are applied in 25 μl and incubated for a further 24 hours. On the day of the measurement, an equivalent volume (100 μl) of Steadylite is added to each well and then left for a period of 30 minutes in order to obtain complete cell lysis and maximum signal production. The plates are subsequently measured in a luminescence counter for microplates after having been sealed with an adhesive film. The products are prepared in the form of a stock solution at 10^−2M and then diluted in 100% of DMSO. Each product concentration is prediluted in culture medium before incubation with the cells, thus containing 0.625% final concentration of DMSO.

human NOT receptor = assay: Binding to the human NOT receptor by SPR (surface plasmon resonance); conditions: Biacore S51, immobilized GST-NOT whole protein and NOT ligand-binding domain, 3.75 to 0.1 μM, 4° C.
Procedure: Evaluation of the Binding to the Human NOT Receptor
The direct binding between compounds of the invention and the human NOT receptor was evaluated using SPR (surface plasmon resonance) technology. In this assay, the protein is immobilized covalently at the matrix and the molecule to be studied is injected into the chamber comprising the sensor chip. The signal is directly proportional to the amount of product bound to the protein. The binding assays were carried out in a Biacore S51 instrument (Biacore Inc., Piscataway, N.J.). The GST-NOT (NOT-FL) whole protein was provided by Invitrogen (PV3265). The NOT ligand-binding domain (His-Thr-NOT 329-598) was expressed and purified as described in Nature, 423, 555-560. The two proteins, diluted to a concentration of 20 μg/ml in an acetate buffer, pH 5.0, containing 5 mM of DTT, were immobilized on a carboxymethyl 5′ dextran surface (CM5 sensor chip, Biacore Inc.) by amine coupling according to the protocol recommended by Biacore, elution being carried out with an HBS-N buffer (10 mM HEPES, 0.15 M NaCl, […], pH 7.4). Approximately 10 000-15 000 resonance units (RU) of the proteins are captured on the surface of the CM5 sensor chip. […] The dissociation was recorded for 5 minutes without any other procedure for regenerating the surface. […]

T1 sequence (Q06219 whole entry): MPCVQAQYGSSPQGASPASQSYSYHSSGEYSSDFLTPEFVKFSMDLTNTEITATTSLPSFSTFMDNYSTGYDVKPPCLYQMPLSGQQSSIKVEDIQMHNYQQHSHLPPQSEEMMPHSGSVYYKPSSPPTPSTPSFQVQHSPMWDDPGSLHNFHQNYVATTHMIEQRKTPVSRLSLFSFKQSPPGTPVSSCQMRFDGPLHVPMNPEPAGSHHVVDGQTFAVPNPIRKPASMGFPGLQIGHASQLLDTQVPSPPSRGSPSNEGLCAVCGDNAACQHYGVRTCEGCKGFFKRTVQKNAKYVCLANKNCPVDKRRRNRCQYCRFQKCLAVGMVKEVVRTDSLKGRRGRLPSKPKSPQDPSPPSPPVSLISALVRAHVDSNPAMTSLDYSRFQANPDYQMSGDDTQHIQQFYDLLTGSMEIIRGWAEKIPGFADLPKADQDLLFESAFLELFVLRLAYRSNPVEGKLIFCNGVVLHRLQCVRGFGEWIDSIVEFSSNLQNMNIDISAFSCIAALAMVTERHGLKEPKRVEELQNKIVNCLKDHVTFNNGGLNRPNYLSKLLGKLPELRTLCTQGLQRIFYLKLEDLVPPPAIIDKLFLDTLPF

Structure (SMILES): CC(C)(O)c1ccc2nc(C(=O)Nc3ccccc3)cn2c1 [Compound 4, 6-(1-Hydroxy-1-methylethyl)-N-phenylimidazo[1,2-a]pyridine-2-carboxamide]
- EC50 (mouse Nurr1 receptor): 0.66 nM

Structure (SMILES): O=C(Nc1ccccc1)c1cn2cc(-c3ccccc3)ccc2n1 [Compound 7, N,6-Diphenylimidazo[1,2-a]pyridine-2-carboxamide]
- affinity (direct binding, classified by maximum binding level and kinetic parameters) (human NOT receptor): moderate
- EC50 (mouse Nurr1 receptor): 0.9 nM

Structure (SMILES): Cc1ccc2nc(C(=O)Nc3ccccc3)cn2c1 [Compound 19, 6-Methyl-N-phenylimidazo[1,2-a]pyridine-2-carboxamide]
- affinity (direct binding, classified by maximum binding level and kinetic parameters) (human NOT receptor): low
- EC50 (mouse Nurr1 receptor): 0.6 nM

Structure (SMILES): COc1ccc2nc(C(=O)Nc3ccccc3)cn2c1 [Compound 29, 6-Methoxy-N-phenylimidazo[1,2-a]pyridine-2-carboxamide]
- EC50 (mouse Nurr1 receptor): 1.3 nM

Structure (SMILES): C=C(C)c1ccc2nc(C(=O)Nc3ccccc3)cn2c1 [Compound 32, 6-Isopropenyl-N-phenylimidazo[1,2-a]pyridine-2-carboxamide]
- EC50 (mouse Nurr1 receptor): 0.06 nM

Structure (SMILES): Cc1ccc2nc(C(=O)Nc3ccccc3)cn2c1C [Compound 43, 5,6-Dimethyl-N-phenylimidazo[1,2-a]pyridine-2-carboxamide]
- EC50 (mouse Nurr1 receptor): 0.3 nM

Structure (SMILES): CN(C)c1ccc2nc(C(=O)Nc3cc(F)ccc3F)cn2c1 [Compound 58, N-(2,5-Difluorophenyl)-6-(dimethylamino)imidazo[1,2-a]pyridine-2-carboxamide]
- EC50 (mouse Nurr1 receptor): 1.3 nM

Structure (SMILES): O=C(Nc1ccccc1F)c1cn2cc(-c3cccc(CO)c3)ccc2n1 [Compound 67, N-(2-Fluorophenyl)-6-[3-(hydroxymethyl)phenyl]imidazo[1,2-a]pyridine-2-carboxamide]
- EC50 (mouse Nurr1 receptor): 0.7 nM

Structure (SMILES): O=C(Nc1ccccc1)c1cn2cc(N3CCC3)ccc2n1 [Compound 70, 6-(Azetidin-1-yl)-N-phenylimidazo[1,2-a]pyridine-2-carboxamide]
- EC50 (mouse Nurr1 receptor): 0.16 nM
